{"source": "patent US20020198158A1", "about": "“Use of a cyclic ether for the preparation of medicaments affecting glucose tolerance” (priority 2000, published 2002)", "key": {"isolated mouse islets": {"tested_on": "isolated mouse islets", "test": "Insulin secretion in vitro from isolated islets", "type": "cell-based", "conditions": "60 min incubation", "protocol": "Pancreatic islets are isolated from four mice with the collagenase isolation technique. In brief, the pancreas is filled retrogradely through the pancreatic duct with 3 ml of Hank's Balanced Salt Solution (Sigma), supplemented with 0.3 mg/ml of Collagenase P (activity 1.86 U/mg; Boehringer Mannheim Gmbh, Mannheim, Germany). The pancreas is subsequently removed and incubated in the same solution for 20 min at 37° C. After rinsing, the islets are handpicked under a stereomicroscope and incubated overnight in RPMI 1640 medium supplemented with 10% fetal calf serum, 2.05 mmol/l L-glutamine, 2.5 μg/ml amphotericin B (GIBCO BRL, Paisley, Scotland), 100 lU/ml penicillin and 100 μg/ml streptomycin (Biol Ind, Beit Haemek, Israel) at 37° C. in humidified air equilibrated with 5% CO2. […]\nPlasma insulin is determined radioimmunochemically with the use of a guinea pig anti-rat insulin antibody, ^125I-labelled porcine insulin as tracer and rat insulin as standard (Linco Research, St Charles, Mo., USA). Free and bound radioactivity is separated by use of an anti-IgG (goat anti-guinea pig) antibody (Linco). […] Plasma glucose is determined with the glucose oxidase method. Plasma GLP-1 is measured by a radioimmunoassay after extraction of plasma samples with ethanol. […]"}, "GLP-1": {"tested_on": "GLP-1", "test": "Plasma GLP-1 after gastric gavage", "type": "in vivo, mice", "conditions": "P<0.05", "protocol": "(§1) Non-fasted NMRI mice (Bomholdtgaard Breeding and Research Center, Ry, Denmark), weighing 20-25 g are used throughout the study. The animals are fed a standard pellet diet and tap water ad libitum.\n(§2) The mice are fasted overnight and anesthetized as above. After induction of anesthesia, D-glucose (150 mg/mouse in 0.5 ml) is administered alone or together with 1,5AnFru (150 mg/mouse) through a gavage tube (outer diameter 1.2 mm) placed in the stomach. Blood samples are taken after 15, 30, 45, 60, 90 and 120 minutes and treated as above.\nPlasma insulin is determined radioimmunochemically with the use of a guinea pig anti-rat insulin antibody, ^125I-labelled porcine insulin as tracer and rat insulin as standard (Linco Research, St Charles, Mo., USA). Free and bound radioactivity is separated by use of an anti-IgG (goat anti-guinea pig) antibody (Linco). The sensitivity of the assay is 12 pmol/l and the coefficiency of variation is less than 3% at both low and high levels. Plasma glucose is determined with the glucose oxidase method. Plasma GLP-1 is measured by a radioimmunoassay after extraction of plasma samples with ethanol. 400 μl 0.05 mol/l sodium phosphate buffer, pH 7.5, containing 6% albumin and 0.1 mol/l NaCl is added to 100 μl mouse plasma on ice and mixed well. […]"}, "NMRI mice [1]": {"tested_on": "NMRI mice", "test": "Intravenous glucose tolerance test", "type": "in vivo", "conditions": "for AUCinsulin (area under the insulin curve during the 50 min study period): anesthetized mice", "protocol": "as §1\nThe mice are anesthetized with an intraperitoneal injection of midazolam (Dormicum^R, Hoffman-La-Roche, Basel, Switzerland, 0.4 mg/mouse) and a combination of fluanison (0.9 mg/mouse) and fentanyl (0.02 mg/mouse; Hypnorm^R, Janssen, Beerse, Belgium). Thereafter, a blood sample is taken from the retrobulbar, intraorbital, capillary plexus in heparinized tubes, whereafter D-glucose (British Drug Houses, Poole, UK; 1 g/kg) is injected rapidly intravenously either alone or together with 1,5AnFru (Danisco Ltd, Copenhagen, Denmark; 0.2 or 1 g/kg); in one series of experiments, 1,5AnFru is given alone (1 g/kg). The volume load is 10 μl/g body weight. New blood samples are taken after 1, 5, 10, 20, 30 and 50 minutes. In another set of experiments, 1,5AnFru is given by gastric gavage (0.2 g/kg) five minutes before the zero blood sample taken immediately before the intravenous injection of glucose as above. Blood samples are taken as above. Following immediate centrifugation at 4° C., plasma is separated and stored at −20° C. or until analysis.\n(§3) Plasma insulin is determined radioimmunochemically with the use of a guinea pig anti-rat insulin antibody, ^125I-labelled porcine insulin as tracer and rat insulin as standard (Linco Research, St Charles, Mo., USA). Free and bound radioactivity is separated by use of an anti-IgG (goat anti-guinea pig) antibody (Linco). The sensitivity of the assay is 12 pmol/l and the coefficiency of variation is less than 3% at both low and high levels. Plasma glucose is determined with the glucose oxidase method. Plasma GLP-1 is measured by a radioimmunoassay after extraction of plasma samples with ethanol. 400 μl 0.05 mol/l sodium phosphate buffer, pH 7.5, containing 6% albumin and 0.1 mol/l NaCl is added to 100 μl mouse plasma on ice and mixed well. The mixture is then extracted with 70% ethanol (vol/vol, final dilution), and after vacuum centrifugation the residue is reconstituted in assay buffer and assayed as previously described (Ørskov et al., 1994). […] The sensitivity using this procedure is 5 pmol/l, and the intra-assay coefficient of variation is 10%.\n(§4) Means±SEM are shown. Area under the curve for plasma insulin levels (AUCisulin) is calculated by the trapezoid rule. Statistical analyses are performed with the SPSS for Windows system. Statistical comparisons between groups are performed with Students t-test."}, "NMRI mice [2]": {"tested_on": "NMRI mice", "test": "Gastric glucose tolerance test", "type": "in vivo", "conditions": "gastric gavage glucose 150 mg/mouse with 1,5AnFru 150 mg/mouse", "protocol": "as §1, §2, §3, §4"}}, "note": "“Also recorded” adds a separate entry of the source."}
{"smiles": "O=C1CO[C@H](CO)[C@@H](O)[C@@H]1O", "note": "[1,5AnFru, 1,5-anhydro-D-fructose]", "values": [{"measurement": "glucose-stimulated insulin secretion", "setting": "isolated mouse islets; 16.7 mmol/l 1,5AnFru together with 11.1 mmol/l glucose", "result": "inhibition of insulin secretion is observed; also recorded: inhibits"}, {"measurement": "glucose-stimulated insulin secretion", "setting": "isolated mouse islets; 1,5AnFru at 11.1 mmol/l or below", "result": "does not affect"}, {"measurement": "plasma GLP-1, 30 min value", "setting": "GLP-1; 30 min after gastric gavage of glucose 150 mg/mouse with 1,5AnFru 150 mg/mouse", "result": "78.2 ± 8.6", "unit": "pmol/L"}, {"measurement": "plasma GLP-1, 60 min value", "setting": "GLP-1; 60 min after gastric gavage of glucose 150 mg/mouse with 1,5AnFru 150 mg/mouse", "result": "28.8 ± 3.8", "unit": "pmol/L"}, {"measurement": "glucose-stimulated insulin secretion (insulin response to iv glucose)", "setting": "NMRI mice [1]; 1,5AnFru 1 g/kg iv together with glucose 1 g/kg iv", "result": "inhibits"}, {"measurement": "basal plasma levels of insulin or glucose", "setting": "NMRI mice [1]; 1,5AnFru given alone iv, 1 g/kg", "result": "not affected"}, {"measurement": "AUCinsulin (area under the insulin curve during the 50 min study period)", "setting": "NMRI mice [1]; iv glucose 1 g/kg together with 1,5AnFru 0.2 g/kg iv", "result": "14.6±1.9", "unit": "nmol/l×50 min"}, {"measurement": "AUCinsulin (area under the insulin curve during the 50 min study period)", "setting": "NMRI mice [1]; iv glucose 1 g/kg together with 1,5AnFru 1 g/kg iv, P=0.021 vs glucose alone", "result": "8.6±1.9", "unit": "nmol/l×50 min"}, {"measurement": "glucose elimination after intravenous glucose administration", "setting": "NMRI mice [1]; iv glucose 1 g/kg with 1,5AnFru iv, 50 min study period", "result": "not affected; also recorded: without affecting"}, {"measurement": "AUCinsulin during 60 min", "setting": "NMRI mice [2]; P=0.018 vs control", "result": "32.9 ± 2.6", "unit": "nmol/L"}, {"measurement": "AUCinsulin during the first 60 min after administration", "setting": "NMRI mice [2]; P=0.018 vs controls", "result": "32.9±2.6", "unit": "nmol/l in 60 min"}, {"measurement": "60 min plasma glucose value", "setting": "NMRI mice [2]; P=0.021 vs controls", "result": "15.5 ± 1.6", "unit": "mmol/L"}]}
